Measured values: ChEMBL document CHEMBL1201862, “PubChem BioAssay data set” (2004)
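Dose response: 5 concentrations. Exposure: 48 h. Format: 96-well plates. Endpoint: linear interpolation; highest concentration if not reached. Here, GI50 denotes the concentration required for 50% inhibition of growth.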 Calls of active or inactive are those of the source. Rule as the data show it: active = GI50 up to about 1.1 µM and inactive = higher.

Columns and labels:
Test in all cases: NCI tumour cell line growth inhibition, 48 h
U-251 = test system: U-251
HCT-15 = test system: HCT-15
A498 = test system: A498
OVCAR-5 = test system: OVCAR-5
HCT-116 = test system: HCT-116
ACHN = test system: ACHN
OVCAR-8 = test system: OVCAR-8
Malme-3M = test system: Malme-3M
HT-29 = test system: HT-29
EKVX = test system: EKVX
UACC-257 = test system: UACC-257
NCI-H226 = test system: NCI-H226
HL-60 = test system: HL-60
UO-31 = test system: UO-31
M14 = test system: M14
SK-OV-3 = test system: SK-OV-3
NCI-H522 = test system: NCI-H522

Compound	GI50 (U-251)	GI50 (HCT-15) [µM]	GI50 (A498)	GI50 (OVCAR-5)	GI50 (HCT-116)	GI50 (ACHN)	GI50 (OVCAR-8)	GI50 (Malme-3M)	GI50 (HT-29)	GI50 (EKVX)	GI50 (UACC-257)	GI50 (NCI-H226)	GI50 (HL-60)	GI50 (UO-31)	GI50 (M14)	GI50 (SK-OV-3)	GI50 (NCI-H522)
COc1ccc(C(=O)NCCC2=CCCCC2)cc1	> 100 µM (inactive)	> 100	85.7 µM (inactive)	> 100 µM (inactive)	> 100 µM (inactive)	> 100 µM (inactive)	> 100 µM (inactive)	> 100 µM (inactive)	> 100 µM (inactive)	> 100 µM (inactive)	> 100 µM (inactive)	–	–	–	–	–	–
COC(=O)c1c(C)oc2ccc(OC(C)=O)cc12	> 100 µM (inactive)	> 100	> 100 µM (inactive)	> 100 µM (inactive)	> 100 µM (inactive)	> 100 µM (inactive)	> 100 µM (inactive)	> 100 µM (inactive)	83 µM (inactive)	54.3 µM (inactive)	> 100 µM (inactive)	> 100 µM (inactive)	> 100 µM (inactive)	33.6 µM (inactive)	> 100 µM (inactive)	> 100 µM (inactive)	> 100 µM (inactive)
[O-][S+]1CSCS1 (centres undefined)	> 100 µM (inactive)	–	> 100 µM (inactive)	> 100 µM (inactive)	> 100 µM (inactive)	> 100 µM (inactive)	> 100 µM (inactive)	> 100 µM (inactive)	> 100 µM (inactive)	> 100 µM (inactive)	> 100 µM (inactive)	> 100 µM (inactive)	> 100 µM (inactive)	> 100 µM (inactive)	> 100 µM (inactive)	> 100 µM (inactive)	> 100 µM (inactive)
CC1CC(C)C(=O)C(C(=O)CC2CC(=O)NC2=O)C1 (centres undefined)	> 100 µM (inactive)	–	> 100 µM (inactive)	> 100 µM (inactive)	> 100 µM (inactive)	> 100 µM (inactive)	> 100 µM (inactive)	> 100 µM (inactive)	> 100 µM (inactive)	> 100 µM (inactive)	> 100 µM (inactive)	> 100 µM (inactive)	> 100 µM (inactive)	> 100 µM (inactive)	> 100 µM (inactive)	> 100 µM (inactive)	> 100 µM (inactive)
O=C(O)/C=C\C(=O)c1ccc(Cl)cc1	> 56.9 µM (inactive)	20.7	79.8 µM (inactive)	> 100 µM (inactive)	25.2 µM (inactive)	21.3 µM (inactive)	> 74.6 µM (inactive)	18.9 µM (inactive)	27.2 µM (inactive)	> 56.4 µM (inactive)	20.1 µM (inactive)	> 55.8 µM (inactive)	23.5 µM (inactive)	33.9 µM (inactive)	18.5 µM (inactive)	> 100 µM (inactive)	> 100 µM (inactive)
CC1(c2ccccc2)CC12C(=O)NC(=O)NC2=O (centres undefined)	> 100 µM (inactive)	> 100	–	> 100 µM (inactive)	> 100 µM (inactive)	> 100 µM (inactive)	> 100 µM (inactive)	> 100 µM (inactive)	> 100 µM (inactive)	> 100 µM (inactive)	> 100 µM (inactive)	> 100 µM (inactive)	> 100 µM (inactive)	> 100 µM (inactive)	> 100 µM (inactive)	> 100 µM (inactive)	> 100 µM (inactive)
C=C=C(C(=O)OC)[S+]([O-])c1ccc([N+](=O)[O-])cc1[N+](=O)[O-] (centres undefined)	38.1 µM (inactive)	21.5	> 100 µM (inactive)	> 82.4 µM (inactive)	21.4 µM (inactive)	37.2 µM (inactive)	25.2 µM (inactive)	> 56.1 µM (inactive)	26.1 µM (inactive)	> 100 µM (inactive)	34.9 µM (inactive)	54.6 µM (inactive)	20.7 µM (inactive)	43.4 µM (inactive)	30.7 µM (inactive)	> 84.7 µM (inactive)	14.2 µM (inactive)
O=C(c1ccc(Cl)cc1)c1ccc(OCCCOc2ccc(C(=O)c3ccc(Cl)cc3)cc2)cc1	> 100 µM (inactive)	> 100	–	> 100 µM (inactive)	> 100 µM (inactive)	> 100 µM (inactive)	> 100 µM (inactive)	> 100 µM (inactive)	> 100 µM (inactive)	> 100 µM (inactive)	> 100 µM (inactive)	> 100 µM (inactive)	> 100 µM (inactive)	–	> 100 µM (inactive)	> 100 µM (inactive)	> 100 µM (inactive)
O=C(c1nc2ccc(Cl)cc2[nH]c1=O)C(O)c1ccco1 (centres undefined)	–	15.5	–	> 100 µM (inactive)	46.7 µM (inactive)	38.6 µM (inactive)	–	> 100 µM (inactive)	83.6 µM (inactive)	> 100 µM (inactive)	> 100 µM (inactive)	> 100 µM (inactive)	6.14 µM (inactive)	42.9 µM (inactive)	29.4 µM (inactive)	> 100 µM (inactive)	1.9 µM (inactive)
COc1ccc(N(C)Sc2ccccc2)cc1	32.8 µM (inactive)	38.1	–	> 100 µM (inactive)	43.7 µM (inactive)	–	49.9 µM (inactive)	> 100 µM (inactive)	–	–	37 µM (inactive)	–	15.1 µM (inactive)	34.8 µM (inactive)	52.5 µM (inactive)	> 100 µM (inactive)	38.8 µM (inactive)
C#Cc1cccc(N2C(=O)CC(=P(c3ccccc3)(c3ccccc3)c3ccccc3)C2=O)c1	71.8 µM (inactive)	–	> 100 µM (inactive)	57 µM (inactive)	32.6 µM (inactive)	> 100 µM (inactive)	> 100 µM (inactive)	80 µM (inactive)	39.6 µM (inactive)	44.2 µM (inactive)	51.4 µM (inactive)	58.2 µM (inactive)	15.1 µM (inactive)	> 100 µM (inactive)	47.6 µM (inactive)	> 100 µM (inactive)	25 µM (inactive)
Cc1cc([N+](=O)[O-])c(S(=O)(=O)c2ccccc2)c([N+](=O)[O-])c1	13.5 µM (inactive)	16	18.2 µM (inactive)	18.6 µM (inactive)	9.75 µM (inactive)	16.5 µM (inactive)	6.9 µM (inactive)	13.6 µM (inactive)	7.85 µM (inactive)	24.2 µM (inactive)	3.52 µM (inactive)	12.2 µM (inactive)	2.82 µM (inactive)	16.9 µM (inactive)	5.93 µM (inactive)	24.8 µM (inactive)	1.73 µM (inactive)
O=C(Nc1ccc(Br)cc1)C(=O)C(C(=O)c1ccccc1F)C1OC(=O)c2ccccc21 (centres undefined)	19.3 µM (inactive)	28.8	40.1 µM (inactive)	48 µM (inactive)	17.7 µM (inactive)	38.5 µM (inactive)	24.8 µM (inactive)	15.3 µM (inactive)	39.6 µM (inactive)	81.1 µM (inactive)	24.8 µM (inactive)	3.48 µM (inactive)	23.7 µM (inactive)	22.3 µM (inactive)	16.5 µM (inactive)	27.5 µM (inactive)	20.7 µM (inactive)
CCn1cnc2c(=S)nc(N)[nH]c21	> 100 µM (inactive)	> 100	–	–	> 100 µM (inactive)	> 100 µM (inactive)	> 100 µM (inactive)	> 100 µM (inactive)	> 100 µM (inactive)	> 100 µM (inactive)	> 100 µM (inactive)	> 100 µM (inactive)	> 100 µM (inactive)	> 100 µM (inactive)	> 100 µM (inactive)	> 100 µM (inactive)	> 100 µM (inactive)
COc1ccc(O)c(C(=O)CCC(=O)O)c1	> 100 µM (inactive)	> 100	> 100 µM (inactive)	> 100 µM (inactive)	–	> 100 µM (inactive)	> 100 µM (inactive)	> 100 µM (inactive)	> 100 µM (inactive)	> 100 µM (inactive)	15.6 µM (inactive)	> 100 µM (inactive)	> 100 µM (inactive)	> 100 µM (inactive)	> 10 µM (inactive)	> 100 µM (inactive)	> 100 µM (inactive)
COc1cc(Br)c(/C=N/N=C(\N)NO)cc1OC	23.4 µM (inactive)	36	32.8 µM (inactive)	21.8 µM (inactive)	15.2 µM (inactive)	9.35 µM (inactive)	15.6 µM (inactive)	21.1 µM (inactive)	15 µM (inactive)	7.21 µM (inactive)	17.3 µM (inactive)	10.9 µM (inactive)	26.9 µM (inactive)	20.3 µM (inactive)	16.4 µM (inactive)	10.6 µM (inactive)	15.2 µM (inactive)
CC12N=NN(c3ccc([N+](=O)[O-])cc3)C1(O)c1ccccc1C2=O (centres undefined)	> 100 µM (inactive)	> 100	–	–	> 100 µM (inactive)	48.5 µM (inactive)	> 100 µM (inactive)	> 100 µM (inactive)	> 100 µM (inactive)	> 100 µM (inactive)	> 100 µM (inactive)	> 100 µM (inactive)	> 100 µM (inactive)	> 100 µM (inactive)	> 100 µM (inactive)	> 100 µM (inactive)	> 100 µM (inactive)
CN(C)CCNC(=O)c1cccc2c1nc(-c1ccccn1)c1ccccc12	16.3 µM (inactive)	13.8	13.6 µM (inactive)	14.8 µM (inactive)	10.3 µM (inactive)	15.5 µM (inactive)	16 µM (inactive)	–	16.3 µM (inactive)	22.7 µM (inactive)	16.7 µM (inactive)	> 10 µM (inactive)	16.4 µM (inactive)	10.4 µM (inactive)	15.8 µM (inactive)	17.4 µM (inactive)	–
